In patent publication US20230389548A1, “MIXTURES OF PYRIMIDINES AS HERBICIDAL COMPOSITIONS” (SYNGENTA CROP PROTECTION AG, priority 2020, published 2023):

Tests used:
Test in all cases: Post-emergence glasshouse spray test, visual percentage phytotoxicity after 13 days
Type in all cases: in vivo
[1] = system: Abutilon threophrasti (ABUTH); details: for ABUTH percentage phytotoxicity: B1
Method: (§1) Seeds of Setaria faberi (SETFA), Echinochloa crus-galli (ECHCG), Digitaria sanguinalis (DIGSA), Lolium perenne (LOLPE), Alopecurus myosuroides (ALOMY), Chenopodium album (CHEAL), Ipomoea hederacea (IPOHE), Stellaria media (STEME), Abutilon threophrasti (ABUTH), Amaranthus retroflexus (AMARE) were sown in standard sterilised soil in pots. After cultivation for 8 days under controlled conditions in a glasshouse (at 24/19° C., day/night; 16 hours light; no humidity control), the plants were sprayed at 500 l/Ha with an aqueous spray solution derived from the formulation of the technical active ingredients in a small amount of acetone and a solvent and emulsifier mixture referred to as IF50 (11.12% Emulsogen EL360™+44.44% N-methylpyrrolidone+44.44% Dowanol DPM glycol ether), to create a 50 g/l solution which was then diluted using 0.2% Genapol XO80 (CAS Number: 9043-30-5) as diluent to give the desired final dose of test compound.
(§2) Where active ingredients were applied as mixtures, aqueous spray solutions were prepared as above, containing both active ingredients.
(§3) The test plants were then grown under controlled conditions in a glasshouse (at 24/18° C., day/night; 15 hours light; 50% humidity) and watered twice daily. After 13 days, the test was evaluated visually for percentage phytotoxicity to the plants (where 100=total damage to plant; 0=no damage to plant; and NC=not captured) when compared to control untreated plants. Two to four replicates were applied for each treatment in a randomised block test design.
(§4) 22., E=X+Y−(X*Y/100), where
(§5) X=average percent phytotoxicity of herbicide A when applied at a certain rate Y=average percent phytotoxicity using herbicide B when applied at a certain rate E=the expected effect of the mixture of herbicides A and B as calculated from the Colby formula.

[2] = system: Alopecurus myosuroides (ALOMY); details: for ALOMY percentage phytotoxicity: B1
Method: as §1, §2, §3, §4, §5

[3] = system: Amaranthus retroflexus (AMARE); details: for AMARE percentage phytotoxicity: B1
Method: as §1, §2, §3, §4, §5

[4] = system: Chenopodium album (CHEAL); details: for CHEAL percentage phytotoxicity: B1
Method: as §1, §2, §3, §4, §5

[5] = system: Digitaria sanguinalis (DIGSA); details: for DIGSA percentage phytotoxicity: B1
Method: as §1, §2, §3, §4, §5

[6] = system: Ipomoea hederacea (IPOHE); details: for IPOHE percentage phytotoxicity: B1; for Observed phytotoxicity IPOHE: B2.4.5
Method: as §1, §2, §3, §4, §5

Lolium perenne (LOLPE) = details: for LOLPE percentage phytotoxicity: B1
Method: as §1, §2, §3, §4, §5

Setaria faberi (SETFA) = details: for SETFA percentage phytotoxicity: B1
Method: as §1, §2, §3, §4, §5

Stellaria media (STEME) = details: B1
Method: as §1, §2, §3, §4, §5

Compound: COc1c(Cl)ccc(-c2nc(C(=O)OCc3ccccc3)c(Cl)c(N)c2F)c1F [B-I]
- ABUTH percentage phytotoxicity ([1]; 0.625 g/ha post-emergence): 75%
- ABUTH percentage phytotoxicity ([1]; 1.25 g/ha post-emergence): 83%
- ABUTH percentage phytotoxicity ([1]; 2.5 g/ha post-emergence): 80%
- ABUTH percentage phytotoxicity ([1]; 5 g/ha post-emergence): 80%
- ABUTH percentage phytotoxicity ([1]; 10 g/ha post-emergence): 85%
- ALOMY percentage phytotoxicity ([2]; 0.625 g/ha post-emergence): 0%
- ALOMY percentage phytotoxicity ([2]; 1.25 g/ha post-emergence): 0%
- ALOMY percentage phytotoxicity ([2]; 2.5 g/ha post-emergence): 0%
- ALOMY percentage phytotoxicity ([2]; 5 g/ha post-emergence): 0%
- ALOMY percentage phytotoxicity ([2]; 10 g/ha post-emergence): 3%
- AMARE percentage phytotoxicity ([3]; 0.625 g/ha post-emergence): 53%
- AMARE percentage phytotoxicity ([3]; 1.25 g/ha post-emergence): 58%
- AMARE percentage phytotoxicity ([3]; 2.5 g/ha post-emergence): 65%
- AMARE percentage phytotoxicity ([3]; 5 g/ha post-emergence): 58%
- AMARE percentage phytotoxicity ([3]; 10 g/ha post-emergence): 70%
- CHEAL percentage phytotoxicity ([4]; 0.625 g/ha post-emergence): 63%
- CHEAL percentage phytotoxicity ([4]; 1.25 g/ha post-emergence): 63%
- CHEAL percentage phytotoxicity ([4]; 2.5 g/ha post-emergence): 60%
- CHEAL percentage phytotoxicity ([4]; 5 g/ha post-emergence): 70%
- CHEAL percentage phytotoxicity ([4]; 10 g/ha post-emergence): 75%
- DIGSA percentage phytotoxicity ([5]; 0.625 g/ha post-emergence): 0%
- DIGSA percentage phytotoxicity ([5]; 1.25 g/ha post-emergence): 3%
- DIGSA percentage phytotoxicity ([5]; 2.5 g/ha post-emergence): 5%
- DIGSA percentage phytotoxicity ([5]; 5 g/ha post-emergence): 0%
- DIGSA percentage phytotoxicity ([5]; 10 g/ha post-emergence): 10%
- Observed phytotoxicity DIGSA ([5]; B2.5.1, 5 g/ha post-emergence): 0%
- IPOHE percentage phytotoxicity ([6]; 0.625 g/ha post-emergence): 13%
- IPOHE percentage phytotoxicity ([6]; 1.25 g/ha post-emergence): 33%
- IPOHE percentage phytotoxicity ([6]; 2.5 g/ha post-emergence): 58%
- IPOHE percentage phytotoxicity ([6]; 5 g/ha post-emergence): 55%
- IPOHE percentage phytotoxicity ([6]; 10 g/ha post-emergence): 53%
- LOLPE percentage phytotoxicity (Lolium perenne (LOLPE); 0.625 g/ha post-emergence): 0%
- LOLPE percentage phytotoxicity (Lolium perenne (LOLPE); 1.25 g/ha post-emergence): 0%
- LOLPE percentage phytotoxicity (Lolium perenne (LOLPE); 2.5 g/ha post-emergence): 0%
- LOLPE percentage phytotoxicity (Lolium perenne (LOLPE); 5 g/ha post-emergence): 0%
- LOLPE percentage phytotoxicity (Lolium perenne (LOLPE); 10 g/ha post-emergence): 5%
- Observed phytotoxicity LOLPE (Lolium perenne (LOLPE); B2.5.2, 5 g/ha post-emergence): 0%
- SETFA percentage phytotoxicity (Setaria faberi (SETFA); 0.625 g/ha post-emergence): 0%
- SETFA percentage phytotoxicity (Setaria faberi (SETFA); 1.25 g/ha post-emergence): 0%
- SETFA percentage phytotoxicity (Setaria faberi (SETFA); 2.5 g/ha post-emergence): 5%
- SETFA percentage phytotoxicity (Setaria faberi (SETFA); 5 g/ha post-emergence): 3%
- SETFA percentage phytotoxicity (Setaria faberi (SETFA); 10 g/ha post-emergence): 20%
- STEME percentage phytotoxicity (Stellaria media (STEME); 0.625 g/ha post-emergence): 50%
- STEME percentage phytotoxicity (Stellaria media (STEME); 1.25 g/ha post-emergence): 58%
- STEME percentage phytotoxicity (Stellaria media (STEME); 2.5 g/ha post-emergence): 75%
- STEME percentage phytotoxicity (Stellaria media (STEME); 5 g/ha post-emergence): 70%
- STEME percentage phytotoxicity (Stellaria media (STEME); 10 g/ha post-emergence): 85%

Compound: CS(=O)(=O)c1ccc(C(=O)C2C(=O)CCCC2=O)c(Cl)c1OCCC1OCCO1 [B-II]
- ABUTH percentage phytotoxicity ([1]; 0.625 g/ha post-emergence): 3%
- ABUTH percentage phytotoxicity ([1]; 1.25 g/ha post-emergence): 38%
- ABUTH percentage phytotoxicity ([1]; 2.5 g/ha post-emergence): 50%
- ABUTH percentage phytotoxicity ([1]; 5 g/ha post-emergence): 58%
- ABUTH percentage phytotoxicity ([1]; 10 g/ha post-emergence): 63%
- Observed phytotoxicity ABUTH ([1]; B2.4.6, 0.625 g/ha post-emergence): 3%
- ALOMY percentage phytotoxicity ([2]; 0.625 g/ha post-emergence): 0%
- ALOMY percentage phytotoxicity ([2]; 1.25 g/ha post-emergence): 0%
- ALOMY percentage phytotoxicity ([2]; 2.5 g/ha post-emergence): 0%
- ALOMY percentage phytotoxicity ([2]; 5 g/ha post-emergence): 0%
- ALOMY percentage phytotoxicity ([2]; 10 g/ha post-emergence): 0%
- Observed phytotoxicity ALOMY ([2]; B2.4.4, 10 g/ha post-emergence): 0%
- AMARE percentage phytotoxicity ([3]; 0.625 g/ha post-emergence): 0%
- AMARE percentage phytotoxicity ([3]; 1.25 g/ha post-emergence): 5%
- AMARE percentage phytotoxicity ([3]; 2.5 g/ha post-emergence): 10%
- AMARE percentage phytotoxicity ([3]; 5 g/ha post-emergence): 28%
- AMARE percentage phytotoxicity ([3]; 10 g/ha post-emergence): 48%
- Observed phytotoxicity AMARE ([3]; B2.4.8, 2.5 g/ha post-emergence): 10%
- CHEAL percentage phytotoxicity ([4]; 0.625 g/ha post-emergence): 0%
- CHEAL percentage phytotoxicity ([4]; 1.25 g/ha post-emergence): 0%
- CHEAL percentage phytotoxicity ([4]; 2.5 g/ha post-emergence): 38%
- CHEAL percentage phytotoxicity ([4]; 5 g/ha post-emergence): 53%
- CHEAL percentage phytotoxicity ([4]; 10 g/ha post-emergence): 65%
- Observed phytotoxicity CHEAL ([4]; B2.4.7, 1.25 g/ha post-emergence): 0%
- DIGSA percentage phytotoxicity ([5]; 0.625 g/ha post-emergence): 0%
- DIGSA percentage phytotoxicity ([5]; 1.25 g/ha post-emergence): 0%
- DIGSA percentage phytotoxicity ([5]; 2.5 g/ha post-emergence): 0%
- DIGSA percentage phytotoxicity ([5]; 5 g/ha post-emergence): 0%
- DIGSA percentage phytotoxicity ([5]; 10 g/ha post-emergence): 0%
- Observed phytotoxicity DIGSA ([5]; B2.4.2, 2.5 g/ha post-emergence): 0%
- Observed phytotoxicity DIGSA ([5]; B2.4.2, 5 g/ha post-emergence): 0%
- Observed phytotoxicity DIGSA ([5]; B2.4.2, 10 g/ha post-emergence): 0%
- IPOHE percentage phytotoxicity ([6]; 0.625 g/ha post-emergence): 3%
- IPOHE percentage phytotoxicity ([6]; 1.25 g/ha post-emergence): 10%
- IPOHE percentage phytotoxicity ([6]; 2.5 g/ha post-emergence): 23%
- IPOHE percentage phytotoxicity ([6]; 5 g/ha post-emergence): 38%
- IPOHE percentage phytotoxicity ([6]; 10 g/ha post-emergence): 48%
- Observed phytotoxicity IPOHE ([6]; 2.5 g/ha post-emergence): 23%
- Observed phytotoxicity IPOHE ([6]; 10 g/ha post-emergence): 48%
- LOLPE percentage phytotoxicity (Lolium perenne (LOLPE); 0.625 g/ha post-emergence): 0%
- LOLPE percentage phytotoxicity (Lolium perenne (LOLPE); 1.25 g/ha post-emergence): 0%
- LOLPE percentage phytotoxicity (Lolium perenne (LOLPE); 2.5 g/ha post-emergence): 0%
- LOLPE percentage phytotoxicity (Lolium perenne (LOLPE); 5 g/ha post-emergence): 0%
- LOLPE percentage phytotoxicity (Lolium perenne (LOLPE); 10 g/ha post-emergence): 0%
- Observed phytotoxicity LOLPE (Lolium perenne (LOLPE); B2.4.3, 5 g/ha post-emergence): 0%
- Observed phytotoxicity LOLPE (Lolium perenne (LOLPE); B2.4.3, 10 g/ha post-emergence): 0%
- SETFA percentage phytotoxicity (Setaria faberi (SETFA); 0.625 g/ha post-emergence): 0%
- SETFA percentage phytotoxicity (Setaria faberi (SETFA); 1.25 g/ha post-emergence): 0%
- SETFA percentage phytotoxicity (Setaria faberi (SETFA); 2.5 g/ha post-emergence): 0%
- SETFA percentage phytotoxicity (Setaria faberi (SETFA); 5 g/ha post-emergence): 0%
- SETFA percentage phytotoxicity (Setaria faberi (SETFA); 10 g/ha post-emergence): 3%
- Observed phytotoxicity SETFA (Setaria faberi (SETFA); B2.4.1, 5 g/ha post-emergence): 0%
- STEME percentage phytotoxicity (Stellaria media (STEME); 0.625 g/ha post-emergence): 0%
- STEME percentage phytotoxicity (Stellaria media (STEME); 1.25 g/ha post-emergence): 13%
- STEME percentage phytotoxicity (Stellaria media (STEME); 2.5 g/ha post-emergence): 45%
- STEME percentage phytotoxicity (Stellaria media (STEME); 5 g/ha post-emergence): 35%
- STEME percentage phytotoxicity (Stellaria media (STEME); 10 g/ha post-emergence): 38%
